Source: PMC3836994, “Killer Bee Molecules: Antimicrobial Peptides as Effector Molecules to Target Sporogonic Stages of Plasmodium” (PLoS Pathogens, 2013)

Key:
Plasmodium spp. = details: An. gambiae infected with a variety of Plasmodium spp., magainin injected into the midgut haemocoel; ref [29]; cited from earlier work
Description: (§1) Supplement ppat.1003790.s001.doc, table 1: Table S1. Peptide sequence, activity and source. | column: Sequence and description

P. falciparum [1] = experiment: Field P. falciparum from gametocyte carriers membrane-fed to An. gambiae (Mali); format: in vivo, Plasmodium falciparum; details: 50 µM
Description: Nyaganabougou, a village approximately 60 km south-west of the Malian capital, Bamako, was used as a site for the source of donors of malaria-infected blood. Due to its proximity to the river Niger, which provides perennial mosquito breeding sites, Nyaganabougou has high numbers of infected individuals and an extended transmission season. Mosquitoes used to establish the An. gambiae Mali colony used for this study were originally collected in the village of Kenieroba (a distance of 15 km from Nyaganabougou). Potential male and female gametocyte carriers between the ages of 6–10 were screened by thick smear and parasite species and density determined by local staff, led by Saibou Doumbia.
Gametocyte carriers were taken to the Malaria Research and Training Centre at the University of Bamako for blood donation. Approximately 4 ml of blood was extracted from carriers and immediately divided into 3 Hemotek membrane feeders for testing 2 separate AMPs and one control for each carrier. Peptides were added to 950 µl of gametocytaemic blood for a final concentration of 50 µM. All parasite-positive individuals were subsequently treated appropriately for parasites and associated symptoms, as determined by, and carried out by, local health workers in Nyaganabougou.
Approximately 120 adult female An. gambiae (Mali, 4–7 days old) were starved overnight, and allowed to feed on the gametocytaemic blood/AMP mix for 30 min. Engorged females were maintained on 10% glucose with 0.05% PABA for 8 days before dissection. No oviposition sites were provided so that fecundity could be measured by determining retained eggs. Mosquito wing length, numbers of retained eggs and oocysts were recorded, and triplicate peptide experiments were carried out on different mosquito cohorts, using blood from different donors. Where possible, a minimum of 50 mosquitoes were dissected for each condition.

[2] = system: wide spectrum of microorganisms; details: x as strong as magainin 2; ref [83]; cited from earlier work
Description: as §1

[3] = system: Anopheles gambiae Sua 4.0 cells; experiment: Sua 4.0 mosquito cell growth (cell counts); format: cell-based; details: 25 µM AMP; for Average number of cells over 3 replicates, peptide: seeded 30×10^4/ml, mean of 3 experiments
Procedure: (§2) To establish potential effects of AMPs on mosquito cells, the An. gambiae Sua 4.0 cell line was used. This facilitated an initial high-throughput screening and provided insights into AMP toxicity, mode of action (lytic or other) and speed of action. Sua 4.0 cells were maintained at 27°C in Schneider's insect medium supplemented with 10% FBS (foetal bovine serum) in T25 culture flasks (Fisher, UK).
(§3) Each AMP was tested separately to establish if it affected cell viability and growth. […] Cells were maintained for 3, 6, 24 or 48 h, after which they were resuspended and a sub-sample from duplicate wells counted using a haemocytometer. To establish cell viability after 48 h (whether simply arrested in development or non-viable), resuspended cells were added to an equal volume of 5% erythrosin B vital dye and viable cells excluding the stain were counted. The viability of 100 cells in triplicate wells was recorded. Each AMP assay was performed in triplicate and included a negative control minus the peptide (5 µl of water alone added to the medium) and a further control of 5 µl of 10% SDS (sodium dodecyl sulphate) substituted for the AMP as this causes 100% cell lysis.

[4] = system: Anopheles gambiae Sua 4.0 cells; experiment: Sua 4.0 mosquito cell viability (erythrosin B exclusion); format: cell-based; design: dose or concentration left out as unconfirmed; details: after 48 h culture; versus control
Procedure: as §2, §3

P. berghei ookinetes = experiment: P. berghei ookinete viability in vitro (erythrosin B); format: cell-based, Plasmodium berghei; details: 50 µM of single peptide, 30 min
Procedure: Our primary aim was to target parasites in mosquitoes before they cross the midgut wall, therefore AMPs were first assessed for their ability to kill ookinetes in vitro. […] Ookinete cultures of P. berghei were established from gametocytaemic blood as previously described. Parasites were enriched using cold 0.17M ammonium chloride after 18 h of culture and washed thoroughly with PBS (phosphate buffered saline). Parasites were seeded in triplicate wells of a 96-well microtitre plate at a density of 1×10^5/ml in a volume of 47.5 µl Schneider's insect medium (Invitrogen) with 2.5 µl of the test AMP (final concentration of 50 µM). Ookinetes were incubated for 30 min in conjunction with triplicate control wells containing medium with 2.5 µl of water instead of AMP. A sub-sample of parasites was then added to an equal volume of 5% erythrosin B to assess viability (150 ookinetes in total, taken from 3 wells). Each of the 33 AMPs was screened in this way and assays were performed 3 times. AMPs displaying a high degree of toxicity (>90% of ookinetes displaying erythrosin B staining) underwent further ookinete assays using a concentration of 100 µM AMP. To assess synergistic effects, combinations of two peptides were also tested at a concentration of 25 µM per AMP, in the assay described above.

P. falciparum [5] = details: added to blood meals at 30 µM; ref [35]; cited from earlier work
Procedure: Some candidate AMPs were additionally investigated using P. falciparum and An. gambiae. TP10 dimer and Melittin lowered both prevalence and intensity of P. falciparum infections produced from laboratory cultures. It has already been reported that the monomer of TP10, added to blood meals at 30 µM, reduced parasite prevalence by 35–45% [35].

Compound: GIGKFLHSAKKFGKAFVGEIMNS [Magainin II, AMP from Xenopus laevis skin, forms pores]
- Oocyst development abolished (Plasmodium spp.): GIGKFLHSAKKFGKAFVGEIMNS. AMP from Xenopus laevis skin. Forms pores and induces cell permeabilisation. An. gambiae infected with a variety of Plasmodium spp. injected with magainin into the midgut haemocoel abolished oocyst development >80%.

Compound: KGRGKQGGKVRAKAKTRSS [Parasin, Parasin I, Isolated from the skin mucus of wounded catfish]
- Oocyst prevalence (oocyst positive mosquitoes), peptide (P. falciparum [1]; Replicate 1, blood of gametocyte carriers, progeny of field An. gambiae): 3% (64)
- Oocyst intensity (mean number of oocysts per gut, range in parentheses), peptide (P. falciparum [1]; Replicate 1, field parasites and mosquitoes): <1 (0–2)
- Reduction of prevalence (P. falciparum [1]; single preliminary experiment): 80%
- Activity relative to magainin 2 [2]: KGRGKQGGKVRAKAKTRSS. Isolated from the skin mucus of wounded catfish. Strong activity (12-100x as strong as magainin 2) against a wide spectrum of microorganisms, without any haemolytic activity.

Compound: CC[C@H](C)[C@H](NC(=O)[C@H](CCCCN)NC(=O)[C@H](CCCCN)NC(=O)[C@H](C)NC(=O)[C@H](CC(C)C)NC(=O)[C@H](C)NC(=O)[C@H](C)NC(=O)[C@H](CC(C)C)NC(=O)[C@H](C)NC(=O)[C@H](CCCCN)NC(=O)[C@H](CC(C)C)NC(=O)[C@H](CC(N)=O)NC(=O)[C@@H](NC(=O)[C@H](CCCCN)NC(=O)CNC(=O)[C@H](CC(C)C)NC(=O)[C@H](CC(C)C)NC(=O)[C@H](Cc1ccc(O)cc1)NC(=O)CNC(=O)[C@H](C)N)[C@@H](C)CC)C(=O)N[C@@H](CC(C)C)C(=O)O [TP10]
- Reduction in cell number (compared to control) ([3]; 3 hrs in culture): 31%
- Average number of cells over 3 replicates, peptide ([3]; 3 hrs in culture, haemocytometer count of duplicate wells): 220000 mL⁻¹
- Reduction in cell number (compared to control) ([3]; 24 hrs in culture): 23%
- Average number of cells over 3 replicates, peptide ([3]; 24 hrs in culture): 400000 mL⁻¹
- Reduction in cell number (compared to control) ([3]; 48 hrs in culture): 3%
- Average number of cells over 3 replicates, peptide ([3]; 48 hrs in culture): 780000 mL⁻¹
- Reduction in cell viability [4]: 3%
- Average ookinete viability (3 reps), peptide (P. berghei ookinetes; n = 150 ookinetes per treatment per replicate): 26%
- Reduction in ookinete viability (P. berghei ookinetes; versus control): 71%
- Reduction of parasite prevalence (P. falciparum [5]): 35–45%
